Patent US9951064B2, “Azaindazole compounds as inhibitors of T790M containing EGFR mutants” (Genentech, Inc., priority 2013, dated 2018)
pEC50, pKi: −log10 of the molar value. Like-named read-outs stand apart in the source and are kept apart here.

Legend:
[1] = target: T1, EGFR T790M L858R (Homo sapiens, UniProt P00533, L858R/T790M); experiment: EGFR T790M L858R biochemical assay (Caliper mobility shift); conditions: 5 μM ATP; apparent Ki (Morrison fit) converted by Cheng-Prusoff, Km of ATP 1.3 μM
T1 construct: purchased Life Technologies PV4879
T1 sequence (P00533 25-1210 T790M/L858R): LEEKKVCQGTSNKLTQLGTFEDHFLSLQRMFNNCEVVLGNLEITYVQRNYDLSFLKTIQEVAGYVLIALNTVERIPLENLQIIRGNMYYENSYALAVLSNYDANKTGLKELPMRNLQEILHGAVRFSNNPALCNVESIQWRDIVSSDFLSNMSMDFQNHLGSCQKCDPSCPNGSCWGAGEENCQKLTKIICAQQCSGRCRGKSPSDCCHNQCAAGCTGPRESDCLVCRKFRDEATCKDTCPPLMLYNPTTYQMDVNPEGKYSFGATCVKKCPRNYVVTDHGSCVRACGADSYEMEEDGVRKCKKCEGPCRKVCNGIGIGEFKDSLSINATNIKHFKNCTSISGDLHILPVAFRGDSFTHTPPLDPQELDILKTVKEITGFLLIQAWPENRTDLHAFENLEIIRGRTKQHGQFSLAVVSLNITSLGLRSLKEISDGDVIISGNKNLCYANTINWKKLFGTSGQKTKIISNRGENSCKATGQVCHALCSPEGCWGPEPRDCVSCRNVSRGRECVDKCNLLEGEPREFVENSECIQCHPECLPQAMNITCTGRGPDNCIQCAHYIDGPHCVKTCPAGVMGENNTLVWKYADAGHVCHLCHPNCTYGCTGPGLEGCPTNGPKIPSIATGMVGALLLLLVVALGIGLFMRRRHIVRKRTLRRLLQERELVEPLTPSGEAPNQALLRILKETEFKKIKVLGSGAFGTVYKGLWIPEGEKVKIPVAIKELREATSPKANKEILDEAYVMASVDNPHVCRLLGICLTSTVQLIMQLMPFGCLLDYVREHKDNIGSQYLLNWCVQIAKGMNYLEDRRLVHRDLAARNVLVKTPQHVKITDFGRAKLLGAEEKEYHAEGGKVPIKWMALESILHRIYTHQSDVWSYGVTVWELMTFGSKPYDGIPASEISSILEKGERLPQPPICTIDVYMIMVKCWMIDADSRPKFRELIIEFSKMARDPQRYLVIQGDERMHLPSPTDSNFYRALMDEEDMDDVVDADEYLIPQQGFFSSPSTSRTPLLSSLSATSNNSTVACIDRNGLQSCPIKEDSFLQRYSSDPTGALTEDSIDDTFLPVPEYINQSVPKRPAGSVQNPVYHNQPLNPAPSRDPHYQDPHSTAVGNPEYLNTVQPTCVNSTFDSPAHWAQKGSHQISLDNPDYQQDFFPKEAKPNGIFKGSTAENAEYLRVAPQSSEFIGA
Summary of the method: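 Caliper mobility-shift read-out, electrophoretic separation of substrate from product, after a 30-minute kinase reaction at 22 °C. EDTA at 80 mM terminates each reaction.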

[2] = target: T2, EGFR del746-750 T790M (Homo sapiens, UniProt P00533, DEL746-750/T790M); experiment: EGFR del746-750 T790M biochemical assay (Caliper mobility shift); conditions: 5 μM ATP; apparent Ki (Morrison fit) converted by Cheng-Prusoff, Km of ATP 2.1 μM; read-out: EGFR(T790M/d746-750) Ki
T2 construct: purchased Carna Biosciences 08-528
T2 sequence (P00533 with tags, fused parts or gaps DEL746-750/T790M limits assumed): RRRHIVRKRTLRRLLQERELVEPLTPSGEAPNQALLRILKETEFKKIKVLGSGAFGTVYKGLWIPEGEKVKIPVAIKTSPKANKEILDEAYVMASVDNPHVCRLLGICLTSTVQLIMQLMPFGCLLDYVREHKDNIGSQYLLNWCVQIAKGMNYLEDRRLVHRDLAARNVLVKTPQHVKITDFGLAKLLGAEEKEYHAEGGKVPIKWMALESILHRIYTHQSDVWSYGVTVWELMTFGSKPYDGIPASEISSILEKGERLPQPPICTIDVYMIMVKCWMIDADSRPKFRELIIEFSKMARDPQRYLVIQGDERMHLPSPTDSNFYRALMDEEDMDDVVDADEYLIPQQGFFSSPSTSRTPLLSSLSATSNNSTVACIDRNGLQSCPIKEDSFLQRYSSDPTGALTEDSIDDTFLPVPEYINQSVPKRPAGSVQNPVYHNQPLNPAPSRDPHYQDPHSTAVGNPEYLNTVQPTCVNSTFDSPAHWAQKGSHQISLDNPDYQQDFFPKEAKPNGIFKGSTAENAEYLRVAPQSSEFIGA
Summary of the method: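 Caliper mobility-shift read-out, with product electrophoretically resolved from substrate and measured. Reactions were quenched with 80 mM EDTA after 30 min at 22 °C.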

[3] = target: T3, phosphor-EGFR in H1975(L585R/T790M) mutant EGFR expressing cells (Homo sapiens, UniProt P00533, L858R/T790M); experiment: H1975 pEGFR MSD cellular assay; format: cell-based; conditions: NCI-H1975 cells, serum starved, 1 hour compound incubation, pEGFR Tyr1068 MSD; read-out: HI975 pEGFR EC50
T3 construct: host or cells: NCI-H1975
T3 sequence (P00533 25-1210 T790M/L858R): as the sequence (P00533 25-1210 T790M/L858R) above
Summary of the method: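 Phospho-EGFR read by MSD electrochemiluminescence: capture with anti-pEGFR antibody (overnight, 4° C), detection with SULFO-TAG anti-total EGFR (1 hour, room temperature). Before lysis, H1975 cells starved of serum overnight got compound for 1 hour at 37° C, 0.5% DMSO final. EC50 via four-parameter logistic regression of percent inhibition.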

[4] = tested on: H1975 (EGFR T790M/L858R) cell proliferation; experiment: H1975 proliferation assay (Cell Titer-Glo); format: cell-based; conditions: NCI-H1975 cells, 72 hour incubation, read-out: H1975 antiproliferative EC50
Experimental: H1975 Proliferation Assays
All cell culture reagents were purchased from Invitrogen/Gibco. Cells are cultured at 37° C. at 5% CO2 and split as recommended by ATCC.

SMILES	pKi [1]	pKi [2]	pEC50 [3]	pEC50 ([4]; Homo sapiens, NCI-H1975, 72 h)	pEC50 [4]
C[C@H](n1nc(N2CC[C@@H](O)C2)c2cnc(Nc3ccnc(N4CC[C@H](O)[C@H](F)C4)n3)cc21)C(F)(F)F (relative stereo) [Example 141, (±)-cis-3-Fluoro-1-(4-(3-((R)-3-hydroxypyrrolidin-1-yl)-1-((S*)-1,1,1-trifluoropropan-2-yl)-1H-pyrazolo[4,3-c]pyridin-6-ylamino)pyrimidin-2-yl)piperidin-4-ol]	8.80	8.57	7.05	6.11	–
C[C@@H](n1nc(N2CC[C@@H](O)C2)c2cnc(Nc3ccnc(N4CC[C@H](O)[C@H](F)C4)n3)cc21)C(F)(F)F (relative stereo) [Example 142, (±)-cis-3-Fluoro-1-(4-(3-((R)-3-hydroxypyrrolidin-1-yl)-1-((R*)-1,1,1-trifluoropropan-2-yl)-1H-pyrazolo[4,3-c]pyridin-6-ylamino)pyrimidin-2-yl)piperidin-4-ol]	8.80	8.51	6.96	5.89	–
CCC(C)n1nc(N2C[C@@H](F)[C@@H](N)C2)c2cnc(Nc3ccnc(N4CCC(C)(O)CC4)n3)cc21 (relative stereo) [Example 177, 1-(4-(3-(cis-3-Amino-4-fluoropyrrolidin-1-yl)-1-sec-butyl-1H-pyrazolo[4,3-c]pyridin-6-ylamino)pyrimidin-2-yl)-4-methylpiperidin-4-ol]	8.77	8.68	7.06	6.31	–
CC(C#N)Nc1nn(C(C)C)c2cc(Nc3ccnc(N4CC[C@H](O)[C@H](F)C4)n3)ncc12 (relative stereo) [Example 179, 2-(6-(2-(cis-3-Fluoro-4-hydroxypiperidin-1-yl)pyrimidin-4-ylamino)-1-isopropyl-1H-pyrazolo[4,3-c]pyridin-3-ylamino)propanenitrile]	8.25	7.82	6.13	5.83	–
CC[C@@H](C)n1nc(N2CC[C@@H](O)C2)c2cnc(Nc3ccnc(N4CCC5(CC4)CNC(=O)CO5)n3)cc21 (relative stereo) [Example 208, 9-(4-((1-((R*)-sec-Butyl)-3-((R)-3-hydroxypyrrolidin-1-yl)-1H-pyrazolo[4,3-c]pyridin-6-yl)amino)pyrimidin-2-yl)-1-oxa-4,9-diazaspiro[5.5]undecan-3-one]	8.42	8.00	5.92	5.04	–
CC[C@@H](C)n1nc(N2CC[C@@H](O)C2)c2cnc(Nc3ccnc(N4CC[C@](C)(C(N)=O)C4)n3)cc21 (relative stereo) [Example 210, (S*)-1-(4-((1-((R*)-sec-Butyl)-3-((R)-3-hydroxypyrrolidin-1-yl)-1H-pyrazolo[4,3-c]pyridin-6-yl)amino)pyrimidin-2-yl)-3-methylpyrrolidine-3-carboxamide]	8.51	8.68	5.73	5.39	–
CC[C@H](C)n1nc(N2CC3(COC3)C2)c2cnc(Nc3ccnc(N4CC[C@@](C)(O)[C@@H](F)C4)n3)cc21 (single isomer, unassigned) [Example 66, (3R*,4S*)-1-{4-[1-((S)-sec-Butyl)-3-(2-oxa-6-azaspiro[3.3]hept-6-yl)-1H-pyrazolo[4,3-c]pyridin-6-ylamino]pyrimidin-2-yl}-3-fluoro-4-methylpiperidin-4-ol]	8.68	8.34	7.20	6.20	–
CC[C@@H](C)n1nc(N2CC3(COC3)C2)c2cnc(Nc3ccnc(N4CC[C@](C)(O)[C@H](F)C4)n3)cc21 (single isomer, unassigned) [Example 67, (3R*,4S*)-1-{4-[1-((R)-sec-Butyl)-3-(2-oxa-6-azaspiro[3.3]hept-6-yl)-1H-pyrazolo[4,3-c]pyridin-6-ylamino]pyrimidin-2-yl}-3-fluoro-4-methylpiperidin-4-ol]	8.41	7.95	6.59	5.94	–
CC[C@@H](C)n1nc(N2CC3(COC3)C2)c2cnc(Nc3ccnc(N4CC[C@@](C)(O)[C@@H](F)C4)n3)cc21 (single isomer, unassigned) [Example 68, (3R*,4S*)-1-{4-[1-((R)-sec-Butyl)-3-(2-oxa-6-azaspiro[3.3]hept-6-yl)-1H-pyrazolo[4,3-c]pyridin-6-ylamino]pyrimidin-2-yl}-3-fluoro-4-methylpiperidin-4-ol]	8.49	7.99	6.80	6.07	–
CC(C)n1nc(N2CCC(O)C2)c2cnc(Nc3ccnc(N4CC[C@@H](O)[C@@H](F)C4)n3)cc21 (single isomer, unassigned) [Example 105, (3S*,4R*)-3-fluoro-1-(4-((3-((R)-3-hydroxypyrrolidin-1-yl)-1-isopropyl-1H-pyrazolo[4,3-c]pyridin-6-yl)amino)pyrimidin-2-yl)piperidin-4-ol]	8.92	8.57	6.89	6.67	–
CC(C)n1nc(N2CCC(O)C2=O)c2cnc(Nc3ccnc(-c4cnn(S(=O)(=O)C5CC5)c4)n3)cc21 (stereo in doubt) [Example 199, (S)-1-(6-((2-(1-(Cyclopropylsulfonyl)-1H-pyrazol-4-yl)pyrimidin-4-yl)amino)-1-isopropyl-1H-pyrazolo[4,3-c]pyridin-3-yl)-3-hydroxypyrrolidin-2-one]	8.82	8.82	6.64	6.20	–
COC1CCN(c2nccc(Nc3cc4c(cn3)c(N3CC5(COC5)C3)nn4C(C)C)n2)CC1 [Example 2, 1-Isopropyl-N-(2-(4-methoxypiperdin-1-yl)pyrimidin-4-yl)-3-(2-oxa-6-azaspiro[3.3]heptan-6-yl)-1H-pyrazolo[4,3-c]pyridine-6-amine]	8.68	8.01	7.09	6.41	–

Now from value to compound:

pKi [1]	pKi [2]	pEC50 [3]	pEC50 ([4]; Homo sapiens, NCI-H1975, 72 h)	pEC50 [4]	SMILES
9.10	8.92	6.89	5.83	–	CC(C)n1nc(N2C[C@@H](O)[C@H](F)C2)c2cnc(Nc3ccnc(N4CC[C@H](O)[C@H](F)C4)n3)cc21 (relative stereo) [Example 131, cis-3-Fluoro-1-(4-(3-(trans-3-fluoro-4-hydroxypyrrolidin-1-yl)-1-isopropyl-1H-pyrazolo[4,3-c]pyridin-6-ylamino)pyrimidin-2-yl)piperidin-4-ol]
8.85	8.33	7.08	6.32	–	CCC(C)n1nc(N2C[C@H](O)[C@@H](F)C2)c2cnc(Nc3ccnc(N4CCC(C)(O)CC4)n3)cc21 (relative stereo) [Example 178, 1-(4-(1-sec-Butyl-3-(trans-3-fluoro-4-hydroxypyrrolidin-1-yl)-1H-pyrazolo[4,3-c]pyridin-6-ylamino)pyrimidin-2-yl)-4-methylpiperidin-4-ol]
8.82	8.46	6.77	6.37	–	CC[C@H](C)n1nc(N2CC(C(C)(C)O)C2)c2cnc(Nc3ccnc(N4CC[C@@H](O)[C@@H](F)C4)n3)cc21 (relative stereo) [Example 194, (3S,4R)-1-(4-((1-((S*)-sec-Butyl)-3-(3-(2-hydroxypropan-2-yl)azetidin-1-yl)-1H-pyrazolo[4,3-c]pyridin-6-yl)amino)pyrimidin-2-yl)-3-fluoropiperidin-4-ol]
8.74	8.25	6.89	6.48	–	CCC(C)n1nc(N2CC(C(C)(C)O)C2)c2cnc(Nc3ccnc(N4CC[C@@H](O)[C@@H](F)C4)n3)cc21 (single isomer, unassigned) [Example 193, (3S,4R)-1-(4-((1-((R*)-sec-Butyl)-3-(3-(2-hydroxypropan-2-yl)azetidin-1-yl)-1H-pyrazolo[4,3-c]pyridin-6-yl)amino)pyrimidin-2-yl)-3-fluoropiperidin-4-ol]
8.92	8.57	7.89	–	6.83	CCC(C)n1nc(N2CC3(COC3)C2)c2cnc(Nc3ccnc(N4CC[C@@H](O)[C@@H](F)C4)n3)cc21 (single isomer, unassigned) [Example 197, (3S,4R)-1-(4-((1-((R*)-sec-Butyl)-3-(2-oxa-6-azaspiro[3.3]heptan-6-yl)-1H-pyrazolo[4,3-c]pyridin-6-yl)amino)pyrimidin-2-yl)-3-fluoropiperidin-4-ol]
8.82	8.51	7.79	–	6.46	CCC(C)n1nc(N2CC3(COC3)C2)c2cnc(Nc3ccnc(N4CC[C@@H](O)[C@@H](F)C4)n3)cc21 (single isomer, unassigned) [Example 198, (3S,4R)-1-(4-((1-((S*)-sec-Butyl)-3-(2-oxa-6-azaspiro[3.3]heptan-6-yl)-1H-pyrazolo[4,3-c]pyridin-6-yl)amino)pyrimidin-2-yl)-3-fluoropiperidin-4-ol]
